From patent US9999619B2, “Piperidin-4-yl azetidine derivatives as JAK1 inhibitors” (Incyte Corporation, priority 2010, dated 2018)

Legend:
Format in all cases: biochemical
[1] = target: human JAK1 (a.a. 837-1142); test: In vitro JAK kinase assay (HTRF, phosphorylation of a biotinylated peptide), JAK1; settings: ratio of JAK2 IC50 to JAK1 IC50, measured at 1 mM ATP
Procedure, shortened: (§1)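 N-terminally His-tagged catalytic domains, baculovirus-expressed in insect cells and purified, were used as enzyme. Reactions ran 1 hr at room temperature and were stopped with a mix of 45 mM EDTA, 300 nM SA-APC and 6 nM Eu-Py20. The HTRF signal was read after 40 min of antibody binding.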

[2] = target: human JAK1 (a.a. 837-1142) (Homo sapiens, UniProt P23458); test: as above; settings: measured at 1 mM ATP
Procedure, shortened: as §1

[3] = target: Jak2 (a.a. 828-1132) (Homo sapiens (Human), UniProt O60674); test: In vitro JAK kinase assay (HTRF, phosphorylation of a biotinylated peptide), JAK2; settings: measured at 1 mM ATP
Sequence of Jak2 (a.a. 828-1132) (O60674 828-1132): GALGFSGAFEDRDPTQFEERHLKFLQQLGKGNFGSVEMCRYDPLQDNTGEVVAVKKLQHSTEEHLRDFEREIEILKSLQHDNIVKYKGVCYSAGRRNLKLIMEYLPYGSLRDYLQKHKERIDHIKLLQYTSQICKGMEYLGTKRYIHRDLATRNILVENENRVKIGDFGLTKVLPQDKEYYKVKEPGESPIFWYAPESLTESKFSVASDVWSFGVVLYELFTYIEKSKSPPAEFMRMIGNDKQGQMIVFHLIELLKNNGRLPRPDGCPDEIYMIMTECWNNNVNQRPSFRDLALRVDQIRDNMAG
Procedure, shortened: as §1

SMILES | IC50 Ratio JAK2/JAK1 [1] | IC50 [2] [µM] | IC50 [3] [µM]
N#CCC1(n2cc(-c3ncnc4[nH]ccc34)cn2)CN(C2CCN(C(=O)c3ccc(C(F)(F)F)c(F)c3)CC2)C1 [Example 52, {1-{1-[3-fluoro-4-(trifluoromethyl)benzoyl]piperidin-4-yl}-3-[4-(7H-pyrrolo[2,3-d]pyrimidin-4-yl)-1H-pyrazol-1-yl]azetidin-3-yl}acetonitrile] | 4.4 | 0.005 to 0.02 | 0.05 to 0.1
N#CCC1(n2cc(-c3ncnc4[nH]ccc34)cn2)CN(C2CC3CCC(C2)N3C(=O)c2ccc(F)c(F)c2)C1 (stereo not drawn) [Example 139, {1-[8-(3,4-difluorobenzoyl)-8-azabicyclo[3.2.1]oct-3-yl]-3-[4-(7H-pyrrolo[2,3-d]pyrimidin-4-yl)-1H-pyrazol-1-yl]azetidin-3-yl}acetonitrile] | 4.4 | ≤ 0.005 | ≤ 0.01
N#CCC1(n2cc(-c3ncnc4[nH]ccc34)cn2)CN(C2CCN(C(=O)C3(c4ccccc4)CC3)CC2)C1 [Example 110, {1-{1-[(1-phenylcyclopropyl)carbonyl]piperidin-4-yl}-3-[4-(7H-pyrrolo[2,3-d]pyrimidin-4-yl)-1H-pyrazol-1-yl]azetidin-3-yl}acetonitrile] | 1.6 | 0.005 to 0.02 | 0.01 to 0.05
N#CCC1(n2cc(-c3c(C#N)cnc4[nH]ccc34)cn2)CN(C2CCN(C(=O)c3cc(C(F)(F)F)ncc3Cl)CC2)C1 [Example 341, 4-{1-[1-{1-[5-chloro-2-(trifluoromethyl)isonicotinoyl]piperidin-4-yl}-3-(cyanomethyl)azetidin-3-yl]-1H-pyrazol-4-yl}-1H-pyrrolo[2,3-b]pyridine-5-carbonitrile] | 3.2 | 0.005 to 0.02 | 0.05 to 0.1
N#CCC1(n2ccc(-c3ncnc4[nH]ccc34)c2)CN(C2CCN(C(=O)c3cccc(C(F)(F)F)c3)CC2)C1 [Example 268, (3-[3-(7H-pyrrolo[2,3-d]pyrimidin-4-yl)-1H-pyrrol-1-yl]-1-{1-[3-(trifluoromethyl)benzoyl]piperidin-4-yl}azetidin-3-yl)acetonitrile] | 3.1 | 0.005 to 0.02 | 0.01 to 0.05
CN(C)c1ccc(C(=O)N2CCC(N3CC(CC#N)(n4cc(-c5ncnc6[nH]ccc56)cn4)C3)CC2)c(F)c1C#N [Example 51, 3-[(4-{3-(cyanomethyl)-3-[4-(7H-pyrrolo[2,3-d]pyrimidin-4-yl)-1H-pyrazol-1-yl]azetidin-1-yl}piperidin-1yl)carbonyl]-6-(dimethylamino)-2-fluorobenzonitrile] | 6.3 | ≤ 0.005 | ≤ 0.01
N#CCC1(n2cc(-c3ncnc4[nH]ccc34)cn2)CN(C2CCN(C(=O)Nc3cccc(C(F)(F)F)c3F)CC2)C1 [Example 170, 4-{3-(cyanomethyl)-3-[4-(7H-pyrrolo[2,3-d]pyrimidin-4-yl)-1H-pyrazol-1-yl]azetidin-1-yl}-N-[2-fluoro-3-(trifluoromethyl)phenyl]piperidine-1-carboxamide] | 6.9 | ≤ 0.005 | 0.01 to 0.05
N#CCC1(n2ccc(-c3ncnc4[nH]ccc34)c2)CN(C2CCN(C(=O)c3ccc(F)c(F)c3F)CC2)C1 [Example 280, {3-[3-(7H-pyrrolo[2,3-d]pyrimidin-4-yl)-1H-pyrrol-1-yl]-1-[1-(2,3,4-trifluorobenzoyl)piperidin-4-yl]azetidin-3-yl}acetonitrile] | 7.5 | ≤ 0.005 | ≤ 0.01
N#CCC1(n2cc(-c3ncnc4[nH]ccc34)cn2)CN(C2CCN(C(=O)c3ccc(C#N)cc3)CC2)C1 [Example 12, 4-[(4-{3-(cyanomethyl)-3-[4-(7H-pyrrolo[2,3-d]pyrimidin-4-yl)-1H-pyrazol-1-yl]azetidin-1-yl}piperidin-1-yl)carbonyl]benzonitrile] | 5.2 | 0.02 to 0.03 | > 0.1
N#CCC1(n2cc(-c3c(F)cnc4[nH]ccc34)cn2)CN(C2CCN(C(=O)c3ccc(F)c(C#N)c3)CC2)C1 [Example 318, 5-[(4-{3-(cyanomethyl)-3-[4-(5-fluoro-1H-pyrrolo[2,3-b]pyridin-4-yl)-1H-pyrazol-1-yl]azetidin-1-yl}piperidin-1-yl)carbonyl]-2-fluorobenzonitrile] | 4.7 | 0.005 to 0.02 | 0.01 to 0.05
N#CCC1(n2cc(-c3ncnc4[nH]ccc34)cn2)CN(C2CCN(Cc3c(F)cccc3C(F)(F)F)CC2)C1 [Example 213, {1-{1-[2-fluoro-6-(trifluoromethyl)benzyl]piperidin-4-yl}-3-[4-(7H-pyrrolo[2,3-d]pyrimidin-4-yl)-1H-pyrazol-1-yl]azetidin-3-yl}acetonitrile] | 9.7 | ≤ 0.005 | 0.01 to 0.05

Second part, the compound after the results:

IC50 Ratio JAK2/JAK1 [1] | IC50 [2] [µM] | IC50 [3] [µM] | SMILES
12.9 | ≤ 0.005 | 0.01 to 0.05 | N#CCC1(n2cc(-c3c(F)cnc4[nH]ccc34)cn2)CN(C2CCN(C(=O)Nc3ccc(F)cc3C(F)(F)F)CC2)C1 [Example 328, 4-{3-(Cyanomethyl)-3-[4-(5-fluoro-1H-pyrrolo[2,3-b]pyridin-4-yl)-1H-pyrazol-1-yl]azetidin-1-yl}-N-[4-fluoro-2-(trifluoromethyl)phenyl]piperidine-1-carboxamide]
7.1 | ≤ 0.005 | 0.01 to 0.05 | N#CCC1(n2cc(-c3ncnc4[nH]ccc34)cn2)CN(C2CCN(C(=O)OCc3ccc(F)cc3F)CC2)C1 [Example 393, 2,4-difluorobenzyl 4-{3-(cyanomethyl)-3-[4-(7H-pyrrolo[2,3-d]pyrimidin-4-yl)-1H-pyrazol-1-yl]azetidin-1-yl}piperidine-1-carboxylate]
4.4 | ≤ 0.005 | 0.01 to 0.05 | COc1c(F)c(F)cc(C(=O)N2CCC(N3CC(CC#N)(n4cc(-c5ncnc6[nH]ccc56)cn4)C3)CC2)c1F [Example 32, {3-[4-(7H-pyrrolo[2,3-d]pyrimidin-4-yl)-1H-pyrazol-1-yl]-1-[1-(2,4,5-trifluoro-3-methoxybenzoyl)piperidin-4-yl]azetidin-3-yl}acetonitrile]
5.3 | ≤ 0.005 | 0.01 to 0.05 | N#CCC1(n2cc(-c3ncnc4[nH]ccc34)cn2)CN(C2CCN(C(=O)c3cccc(Cl)n3)CC2)C1 [Example 13, {1-{1-[(6-chloropyridin-2-yl)carbonyl]piperidin-4-yl}-3-[4-(7H-pyrrolo[2,3-d]pyrimidin-4-yl)-1H-pyrazol-1-yl]azetidin-3-yl}acetonitrile]
6.9 | ≤ 0.005 | 0.01 to 0.05 | N#CCC1(n2cc(-c3ncnc4[nH]ccc34)cn2)CN(C2CCN(C(=O)c3ccc(F)c(F)c3)CC2)C1 [Example 35, {1-[1-(3,4-difluorobenzoyl)piperidin-4-yl]-3-[4-(7H-pyrrolo[2,3-d]pyrimidin-4-yl)-1H-pyrazol-1-yl]azetidin-3-yl}acetonitrile]
26.7 | ≤ 0.005 | 0.01 to 0.05 | CC(C)NCc1cc(C(=O)N2CCC(N3CC(CC#N)(n4cc(-c5ncnc6[nH]ccc56)cn4)C3)CC2)nc(C(F)(F)F)n1 [Example 382, {1-(1-{[6-[(isopropylamino)methyl]-2-(trifluoromethyl)pyrimidin-4-yl]carbonyl}piperidin-4-yl)-3-[4-(7H-pyrrolo[2,3-d]pyrimidin-4-yl)-1H-pyrazol-1-yl]azetidin-3-yl}acetonitrile]
10.8 | ≤ 0.005 | ≤ 0.01 | N#CCC1(n2cc(-c3ncnc4[nH]ccc34)cn2)CN(C2CCN(C(=O)c3cccc(C(F)(F)F)c3F)CC2)C1 [Example 7, {1-{1-[2-fluoro-3-(trifluoromethyl)benzoyl]piperidin-4-yl}-3-[4-(7H-pyrrolo[2,3-d]pyrimidin-4-yl)-1H-pyrazol-1-yl]azetidin-3-yl}acetonitrile]
67.3 | ≤ 0.005 | 0.01 to 0.05 | N#CCC1(n2cc(-c3ncnc4[nH]ccc34)cn2)CN(C2CCN(C(=O)c3cc(CN4CCC4)nc(C(F)(F)F)n3)CC2)C1 [Example 372, {1-(1-{[6-(azetidin-1-ylmethyl)-2-(trifluoromethyl)pyrimidin-4-yl]carbonyl}piperidin-4-yl)-3-[4-(7H-pyrrolo[2,3-d]pyrimidin-4-yl)-1H-pyrazol-1-yl]azetidin-3-yl}acetonitrile]
6.7 | ≤ 0.005 | 0.01 to 0.05 | N#CCC1(n2cc(-c3ncnc4[nH]ccc34)cn2)CN(C2CCN(C(=O)c3cc(F)cc(C(F)(F)F)c3)CC2)C1 [Example 23, {1-{1-[3-fluoro-5-(trifluoromethyl)benzoyl]piperidin-4-yl}-3-[4-(7H-pyrrolo[2,3-d]pyrimidin-4-yl)-1H-pyrazol-1-yl]azetidin-3-yl}acetonitrile]
2.5 | ≤ 0.005 | ≤ 0.01 | COC(=O)c1cc(F)ccc1NC(=O)N1CCC(N2CC(CC#N)(n3cc(-c4ncnc5[nH]ccc45)cn3)C2)CC1 [Example 207, methyl 2-{[(4-{3-(cyanomethyl)-3-[4-(7H-pyrrolo[2,3-d]pyrimidin-4-yl)-1H-pyrazol-1-yl]azetidin-1-yl}piperidin-1-yl)carbonyl]amino}-5-fluorobenzoate]
6.5 | ≤ 0.005 | 0.01 to 0.05 | N#CCC1(n2cc(-c3ncnc4[nH]ccc34)cn2)CN(C2CCN(C(=O)OCc3ccccc3)CC2)C1 [Example 389, benzyl 4-{3-(cyanomethyl)-3-[4-(7H-pyrrolo[2,3-d]pyrimidin-4-yl)-1H-pyrazol-1-yl]azetidin-1-yl}piperidine-1-carboxylate]
0.3 | ≤ 0.005 | ≤ 0.01 | N#CCC1(n2cc(-c3ncnc4[nH]ccc34)cn2)CN(C2CCN(C(=O)c3cccc4ccccc34)CC2)C1 [Example 87, {1-[1-(1-naphthoyl)piperidin-4-yl]-3-[4-(7H-pyrrolo[2,3-d]pyrimidin-4-yl)-1H-pyrazol-1-yl]azetidin-3-yl}acetonitrile]
